Assay results: patent publication US20080113907A1, “Uses Of Galectin-2” (Charite-Universitat-Smedizin Berlin, priority 2004, published 2008)

B1: Galectin-2 (ligand, UniProt P05162 1-132, looked up)
chain: MAGELEVKNMDMKPGSTLKITGSIADGTDGFVINLGQGTDKLNLHFNPRFSESTIVCNSLDGSNWGQEQREDHLCFSPGSEVKFTVTFESDKFKVKLPDGHELTFPNRLGHSHLSYLSVRGGFNMSSFKLKE
modifications: biotinylated (sites not given) in the flow cytometry binding assays; coupled to tosylactivated magnetic beads in the pull-down
notes: The NcoI site gave a Thr(Ser)2Ala substitution: Thr in human, Ser in rat; also called Gal-2; biotinylated Gal-2
B2: CD7 (receptor, human, UniProt P09564 26-240, looked up)
chain: AQEVQQSPHCTTVPVGASVNITCSTSGGLRGIYLRQLGPQPQDIIYYEDGVVPTTDRRFRGRIDFSGSQDNLTITMHRLQLSDTGTYTCQAITEVNVYGSGTLVLVTEEQSQGWHRCSDAPPRASALPAPPTGSALPDPQTASALPDPPAASALPAALAVISFLLGLGLGVACVLARTQIKKLCSWRDKNSAACVVYEDMSHSRCNTLSSPNQYQ
notes: whole, on cells

What was measured:
CD3, CD7, β1 integrin = experiment: Magnetic separation / co-immunoprecipitation of galectin containing complexes; type: binding, human; details: galectin coated beads, immunoblot for CD3, CD7, β1
Protocol: For immunoblotting cells were washed in PBS, and lysed in cell lysis buffer (1% Triton-X, 0.5% NP-40, 0.1% SDS, 0.5% sodium deoxycholate, 5 mM EDTA, 50 mM and 50 mM protease- and phosphatase-inhibitor cocktail 2, 1 mM PMSF, 100 μg/ml trypsin-chymotrypsin inhibitor, 100 μg/ml chymostatin in PBS). The concentration of proteins in each lysate was measured using the Bio-Rad protein assay (Bio-Rad Laboratories, Hercules, Calif.). Equivalent amounts of protein (10 μg) were fractionated on a 10-20% Tris-glycine gel and electrotransferred to a nitrocellulose membrane (Novex, San Diego, Calif.). Membranes were blocked with 5% milk in 0.1% Tween 20-PBS (Fisher Scientific, Hanover Park, Ill.), followed by incubation for 60 m in at room temperature with the indicated primary antibody. The membranes were washed six times with 0.1% Tween 20-PBS and then incubated for 1 h with the appropriate horseradish peroxidase-conjugated secondary antibody (Santa Cruz Biotechnology), washed, and incubated with the chemiluminescent substrate (Perkin-Elmer, Carlsbad, Calif.) for 5 minutes. The membranes were then exposed to film (Amersham, Arlington Heights, Ill.). […]

PBT = experiment: Analysis of T cell cycling (DNA content, cyclin B1, cell cycle regulators); type: cell-based, human; details: anti-CD3 activated PBT; dropped from 8% (galectin-1) and 7% (galectin-7)
Protocol: For immunoblotting cells were washed in PBS, and lysed in cell lysis buffer (1% Triton-X, 0.5% NP-40, 0.1% SDS, 0.5% sodium deoxycholate, 5 mM EDTA, 50 mM and 50 mM protease- and phosphatase-inhibitor cocktail 2, 1 mM PMSF, 100 μg/ml trypsin-chymotrypsin inhibitor, 100 μg/ml chymostatin in PBS). The concentration of proteins in each lysate was measured using the Bio-Rad protein assay (Bio-Rad Laboratories, Hercules, Calif.). Equivalent amounts of protein (10 μg) were fractionated on a 10-20% Tris-glycine gel and electrotransferred to a nitrocellulose membrane (Novex, San Diego, Calif.). Membranes were blocked with 5% milk in 0.1% Tween 20-PBS (Fisher Scientific, Hanover Park, Ill.), followed by incubation for 60 m in at room temperature with the indicated primary antibody. The membranes were washed six times with 0.1% Tween 20-PBS and then incubated for 1 h with the appropriate horseradish peroxidase-conjugated secondary antibody (Santa Cruz Biotechnology), washed, and incubated with the chemiluminescent substrate (Perkin-Elmer, Carlsbad, Calif.) for 5 minutes. The membranes were then exposed to film (Amersham, Arlington Heights, Ill.).
Flow cytometry was performed after staining for DNA content, and cyclin B1, essentially as previously described (21). Briefly, cells were washed twice with PBS, adjusted to 1×10^6 cells/sample and fixed in 90% Methanol at −20° C. After fixation, cells were washed twice with PBS, incubated for 45 min at 4° C. with a cyclin B1-FITC conjugated monoclonal antibody. After the final wash, cells were resupended in PBS and 5 μl of RNase (0.6 μg/ml, 30-60 Kunitz Units, Sigma), incubated at 37° C. for 15 min and the chilled on ice. One hundred and twenty five microliters of PI (200 μg/ml) were added prior to analysis by flow cytometry. Each analysis was performed on at least 25.000 events.

T cells (PBT, LPT) [1] = experiment: Integrin accessibility on T cell surface (flow cytometry); type: cell-based, human; details: CD3 activated PBT
Protocol: For surface staining, cells were washed twice in ice-cold PBS and 1×10^6 cells were resuspended in flow buffer (HBSS containing 1% BSA and 0.1% sodium azide). Cells were incubated with the respective mAb at predetermined saturating concentrations or with isotype-matched nonspecific mouse mAb (DAKO) for 30 min at 4° C., washed twice with flow buffer, and incubated with FITC-conjugated goat anti-mouse IgG for 30 min at 4° C. The cells were again washed twice with flow buffer, fixed in 1% paraformaldehyde and analyzed by a single laser flow cytometer (FacsCalibur, […]), using Cell Quest software (BD Pharmingen). Cells stained with a negative control Ab were gated to contain <2% positive cells. To perform analysis of intracellular proteins, cells were washed twice with PBS, adjusted to 1×10^6 cells per sample, and fixed in 90% methanol at −20° C. After fixation, cells were washed twice with PBS and incubated with a monoclonal mouse anti-bax, Bcl-2, Rb, Cyclin A, p21, p27, or p53 antibody for 45 minutes at 4° C., followed by an incubation with a goat anti-mouse FITC-conjugated mAb (Biosource) for 45 minutes at 4° C. Thereafter cells were washed and analyzed by flow cytometry as described above. The background level of immunofluorescence was determined by incubating cells with FITC-conjugated mouse IgG (isotype control).

T cells (PBT, LPT) [2] = experiment: Adhesion assay to collagen type I and fibronectin; type: cell-based, human; details: CD3 activated PBT
Protocol: 96 well flat-bottom plates were precoated overnight at 4° C. with 12 μg/well fibronectin (Chemicon) in DPBS, 40 μg/well collagen type I (Sigma-Aldrich) in 0.1 M acetic acid, or 3% BSA (Sigma-Aldrich) in DPBS as a control and then washed three times with DPBS. Freshly isolated T cells were fluorescently-labelled with 5 μM calcein-AM (Molecular Probes, Eugene, Oreg.) for 30 min at 37° C. in 5% CO2 at 5×10^6 cells/ml in RPMI. The cells were then washed three times with RPMI containing 5% FCS. Calcein-labelled T cells were resuspended in RPMI and 5×10^5 T cells/well were added to 96-well plates containing purified ECM components or BSA for the indicated times. Saturating concentrations of integrin-blocking mAbs (predetermined by flow cytometry) were preincubated with T cells for 30 min at 37° C. before adding T cells to the wells for the adhesion assay. Nonadherent cells were removed by a standardized washing technique that was developed to minimize background binding, which includes both an orbital and a rocking motion repeated three times with RPMI. Adhesion was quantified with a multiwell fluorescent spectrophotometer (Tecan, Groedig, Austria). For each experimental group the results were expressed as the mean percentage±SD of bound T cells from triplicate wells.

CD7 = target: B2; experiment: pull-down from T cells with Gal-2-coated magnetic beads, Western blot; agrees with antibody blocking in flow cytometry
Protocol: A) Cells were preincubated with CD3, CD7, and β1 mAb (1:100 dilution) for 1 h at RT and then cultured for additional 24 h in the presence of 5 μg/ml galectin-2 coupled to biotin. Cells were then harvested and binding of galectin-2 to T cells determined by two-color flow cytometry using streptavidin labelled-APC to detect biotinylated sites. B) Galectin-1 coimmunoprecipitates with CD3, CD7 and β1 integrin, whereas galectin-2 coimmunoprecipitate only with integrin β1. Cells were incubated with galectin-1 or -2 coated tosyl-activated beads and subsequently lysed. Bead-bound cell fragments were separated magnetically and immunoblotted for CD3, CD7 or β1. Both graphs are representative for four different experiments yielding similar results.
For separation of galectin-2-associated complexes, 1×10⁸ tosylactivated, supermagnetic, polysterene coated beads (Dynalbeads, Dynal Biotech, Oslo, Norway) were coated either with 350 μg BSA, Galectin-1, Galectin-2, CD7, integrin-β1 or OKT3 overnight at 37° C. using tilt rotation. After incubation, the beads were washed in 0.2 M Tris (pH 8.5 containing 0.1% BSA), and then incubated with 2×10⁶ PBT for 1 h at 37° C. […]

BSA = target: T1, BSA (UniProt P02769 25-607, coupled to tosylactivated magnetic beads); experiment: pull-down from T cells with BSA-coated magnetic beads, Western blot
T1 construct: Negative control for the bead pull-down; also called BSA control
T1 sequence (P02769 25-607 limits assumed): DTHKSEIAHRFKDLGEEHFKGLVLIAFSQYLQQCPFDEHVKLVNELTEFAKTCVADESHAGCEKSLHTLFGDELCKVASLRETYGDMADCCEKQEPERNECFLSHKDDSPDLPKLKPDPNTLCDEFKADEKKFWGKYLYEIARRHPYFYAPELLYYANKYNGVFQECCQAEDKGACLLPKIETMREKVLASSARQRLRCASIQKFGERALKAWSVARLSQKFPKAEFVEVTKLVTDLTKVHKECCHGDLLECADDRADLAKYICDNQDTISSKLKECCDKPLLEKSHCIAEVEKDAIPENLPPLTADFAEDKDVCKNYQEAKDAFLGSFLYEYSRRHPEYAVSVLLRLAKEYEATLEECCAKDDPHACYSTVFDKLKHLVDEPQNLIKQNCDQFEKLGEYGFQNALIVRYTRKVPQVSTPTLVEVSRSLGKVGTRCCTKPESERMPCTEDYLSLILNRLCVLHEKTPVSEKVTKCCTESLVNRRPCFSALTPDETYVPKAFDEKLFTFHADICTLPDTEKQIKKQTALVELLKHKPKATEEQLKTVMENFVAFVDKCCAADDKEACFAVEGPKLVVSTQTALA

## galectin-1: prototype β-galactoside binding lectin used for comparison
CD3, CD7, β1 integrin
  glycoproteins co-immunoprecipitated: coimmunoprecipitates with CD3, CD7 and β1 integrin
PBT
  cyclin B1 expression: 1%
T cells (PBT, LPT) [1]
  β4 integrin accessibility: neither galectin-1 nor galectin-2 changed
T cells (PBT, LPT) [1]; 50 μg/ml
  integrin α5 accessibility: downregulated
  integrin β1 accessibility: downregulated
T cells (PBT, LPT) [1]; second statement
  integrin a5 accessibility: slightly upregulated
T cells (PBT, LPT) [2]; without galectin 22.1±3.5%
  cells adhering to collagen type I: 9.2±3.5%
T cells (PBT, LPT) [2]; without galectin 26.3±5.6%
  cells adhering to fibronectin: 14.0±4.6%

## B1
CD7
  binding result: no binding

## B2
BSA
  binding result: no binding
